Test results reported in US5808165A, “β-diketones, processes for making β-diketones and use of β-diketones as stabilizers for PVC” (Rhone-Poulenc Chimie, priority 1992, dated 1998).

Columns and labels:
[1] = Vapor pressure at 180° C.; type: physicochemical
Procedure: Study of the physico-chemical properties of the β-diketones
Table 1 gives the vapor pressures at 180° C., which is a typical temperature at which PVC is employed.

[2] = Odor during storage / under operating conditions in PVC; conditions: during storage of the composition or transformation of the PVC
Text: In addition, under operating conditions in PVC, the β-diketone compositions according to the present invention can release substantially no odor, in sharp contrast to closely related compounds.

[3] = Acute toxicity LD50 per os in the rat; conditions: in vivo, po
Text: Generally, toxicity increases or decreases linearly with the number of carbon atoms in the compound. […] Certain β-diketones, which are not a part of the present invention, have a toxicity which is non-negligible but low. […] In sharp contrast, the toxicity of the β-diketone compounds according to the present invention can be so low as to be not measurable.

[4] = Physical state; type: physicochemical
[5] = Solubility in dioctyl phthalate, "DOP"; type: physicochemical
[6] = Solubility in "one-pack" additive; type: physicochemical
[7] = Solubility of dibenzoylmethane in solvents (comparative)
[8] = Solubility in the principal constituents of an "all in one" additive; type: physicochemical; set-up: key: S: Mixture soluble; S1: Mixture soluble but viscous; S2: Mixture soluble but very viscous; I: Mixture insoluble
Text: Solubility in the principal constituents of an "all in one" additive
The purpose was to compare the behavior of a mixture based on a composition according to the invention with a mixture based on dibenzoylmethane, in preparing a mixture of stabilizing agents.
The mixtures were weighed in screw-capped bottles.
The bottles were placed in a shaking machine for agitation, for several hours.

In the case of `CC(C)CC(=O)CC(=O)c1ccccc1` [Isovaleroylacetophenone, isovalerylbenzoylmethane], the “Vapor pressure at 180° C.” value [1] is reported as 28 mmHg, the “odor when degradation occurs” value [2] is reported as “intolerable odor” and the LD50 [3] is reported as 4880 mg/kg. For the same compound, the Physical state [4] was “Liquid”.
With Isodecanoylacetophenone the “Vapor pressure at 180° C.” value [1] was 2 mmHg and the Physical state [4] was “Liquid”.
In the case of “Isooctanoylbenzoylmethane [Isooctanoylacetophenone]”, the “Vapor pressure at 180° C.” value [1] is reported as 6 mmHg and the Physical state [4] is reported as “Liquid”.
With `CCCCCCCC(=O)CC(=O)c1ccccc1` [Octanoylacetophenone, Octanoylbenzoylmethane] the “Vapor pressure at 180° C.” value [1] was 5.6 mmHg, the “Solubility in dioctyl phthalate, "DOP"” value ([5]; 3° C.) was 50-100 g/100 g solvent and the “Solubility in dioctyl phthalate, "DOP"” value ([5]; 23° C.) was over 100 g/100 g solvent. For the same compound, the “Solubility in dioctyl phthalate, "DOP"” value ([5]; -15° C.) was 12-25 g/100 g solvent, the Physical state [4] was “Solid” and the “Solubility in "one-pack" additive” value ([6]; 3° C.) was over 18 g/100 g solvent. For the same compound, the “Solubility in "one-pack" additive” value ([6]; 23° C.) was over 18 g/100 g solvent and the “Solubility in "one-pack" additive” value ([6]; -15° C.) was 9-18 g/100 g solvent.
With `CCCCCCC(=O)CC(=O)c1ccccc1` [Heptanoylacetophenone, heptanoyl-benzoylmethane] the “Vapor pressure at 180° C.” value [1] was 7 mmHg, the “Solubility in dioctyl phthalate, "DOP"” value ([5]; 3° C.) was over 100 g/100 g solvent and the “Solubility in dioctyl phthalate, "DOP"” value ([5]; 23° C.) was over 100 g/100 g solvent. The “Solubility in dioctyl phthalate, "DOP"” value ([5]; -15° C.) was 50-100 g/100 g solvent, the Physical state [4] was “Liquid” and the “Solubility in "one-pack" additive” value ([6]; 3° C.) was over 18 g/100 g solvent. The “Solubility in "one-pack" additive” value ([6]; 23° C.) was over 18 g/100 g solvent and the “Solubility in "one-pack" additive” value ([6]; -15° C.) was over 18 g/100 g solvent.
For `O=C(CC(=O)c1ccccc1)c1ccccc1` [Dibenzoylmethane, dibenzoylmethane], the “Vapor pressure at 180° C.” value [1] was 4 mmHg, the Solubility ([7]; Decalin, 3° C.) was under 5 g/100 g solution and the Solubility ([7]; Decalin, 25° C.) was 5-10 g/100 g solution. The Solubility ([7]; Dioctyl adipate, DOA, 3° C.) was 10-20 g/100 g solution, the Solubility ([7]; Dioctyl adipate, DOA, 25° C.) was 20-30 g/100 g solution and the Solubility ([7]; Dioctyl adipate, DOA, -15° C.) was 5-10 g/100 g solution. For the same compound, the Solubility ([7]; Dioctyl phthalate, DOP, 25° C.) was 10-20 g/100 g solution, the Solubility ([7]; Dioctyl phthalate, DOP, -15° C.) was 5-10 g/100 g solution and the Solubility ([7]; Diphenyl decyl phosphite, "OS 150", 25° C., only 10% and 20% solutions examined) was under 10 g/100 g solution. For the same compound, the Solubility ([7]; Epoxidized soy oil, ESO, 3° C., probably high (crystallization was slow)) was 10-20 g/100 g solution, the Solubility ([7]; Epoxidized soy oil, ESO, 25° C.) was 10-20 g/100 g solution and the Solubility ([7]; Epoxidized soy oil, ESO, -15° C.) was under 1 g/100 g solution. The Solubility ([7]; Octyl trimellitate, OTM, 25° C.) was 10-20 g/100 g solution, the Solubility ([7]; Octyl trimellitate, OTM, -15° C.) was 5-10 g/100 g solution and the Solubility ([7]; Phenyl didecyl phosphite, "OS 300", 3° C., only 10% and 20% solutions examined) was 10-20 g/100 g solution. The Solubility ([7]; Phenyl didecyl phosphite, "OS 300", 25° C., only 10% and 20% solutions examined) was 10-20 g/100 g solution, the Solubility ([7]; Phenyl didecyl phosphite, "OS 300", -15° C., only 10% and 20% solutions examined) was under 10 g/100 g solution and the Solubility ([7]; Phosphite of butylcarbitol and bisphenol A, 3° C., only 10% and 20% solutions examined) was 10-20 g/100 g solution. For the same compound, the Solubility ([7]; Phosphite of butylcarbitol and bisphenol A, 25° C., only 10% and 20% solutions examined) was 10-20 g/100 g solution, the Solubility ([7]; Phosphite of butylcarbitol and bisphenol A, -15° C., only 10% and 20% solutions examined) was “about 10 g/100 g solution” and the Solubility ([7]; Tetralin, 3° C.) was 10-20 g/100 g solution. For the same compound, the Solubility ([7]; Tetralin, 25° C.) was 20-30 g/100 g solution, the Solubility ([7]; Tetralin, -15° C.) was under 10 g/100 g solution and the Solubility ([7]; Tridecyl phosphite, "OS 330", 25° C., only 10% and 20% solutions examined) was under 10 g/100 g solution. For the same compound, the Solubility ([7]; Trilauryl phosphite, "OS 360", 25° C., only 10% and 20% solutions examined) was under 10 g/100 g solution, the “Solubility in dioctyl phthalate, "DOP"” value ([5]; 3° C.) was “about 10 g/100 g solvent” and the “Solubility in dioctyl phthalate, "DOP"” value ([5]; 23° C.) was 10-20 g/100 g solvent. For the same compound, the Physical state [4] was “Solid”, the Solubility of mixture ([8]; Ba 0, Zn 0, Phosphite 1/2, β-diketone 1/2) was “I” and the Solubility of mixture ([8]; Ba 0, Zn 0, Phosphite 1/3, β-diketone 2/3) was “I”. For the same compound, the Solubility of mixture ([8]; Ba 0, Zn 0, Phosphite 2/3, β-diketone 1/3) was “I”, the Solubility of mixture ([8]; Ba 0, Zn 1/2, Phosphite 0, β-diketone 1/2) was “I” and the Solubility of mixture ([8]; Ba 0, Zn 2/3, Phosphite 0, β-diketone 1/3) was “I”. The Solubility of mixture ([8]; Ba 1/4, Zn 1/4, Phosphite 1/4, β-diketone 1/4) was “I”, the Solubility of mixture ([8]; Ba 1/8, Zn 1/8, Phosphite 3/8, β-diketone 3/8) was “I” and the Solubility of mixture ([8]; Ba 1/10, Zn 2/10, Phosphite 5/10, β-diketone 2/10) was “I”. The Solubility of mixture ([8]; Ba 1/10, Zn 3/10, Phosphite 0, β-diketone 6/10) was “I”, the Solubility of mixture ([8]; Ba 1/10, Zn 3/10, Phosphite 3/10, β-diketone 3/10) was “I” and the “Solubility in "one-pack" additive” value ([6]; 3° C.) was 5-9 g/100 g solvent. For the same compound, the “Solubility in "one-pack" additive” value ([6]; 23° C.) was “about 9 g/100 g solvent” and the “Solubility in "one-pack" additive” value ([6]; -15° C.) was under 5 g/100 g solvent.
For Isoundecanoylacetophenone, the “Vapor pressure at 180° C.” value [1] was 1.5 mmHg and the Physical state [4] was “Liquid”.
In the case of Isononanoylacetophenone, the “Vapor pressure at 180° C.” value [1] is reported as 4 mmHg and the Physical state [4] is reported as “Liquid”.
